Assay results reported in PMC5026118 (Journal of pharmaceutical sciences, 2016).

Assay: Aqueous solubility determination at room temperature
Assay type: physicochemical
Details: water; for log Sw (mg/ml) / Sw (log) Experimental: aqueous solubility of the hydrate, room temperature; for Sw (log) Experimental: value in brackets

| Compound | log Sw (mg/ml) [log mg/ml] | Sw (log) Experimental [log mg/ml] | solubility thermodynamic at 48 h (thermodynamic from solid) [mg/mL] |
| --- | --- | --- | --- |
| Sc1ncnc2nc[nH]c12 [Mercaptopurine, mercaptopurine monohydrate] | −0.93 | −0.93 | 0.12 |
| O=c1c(O)c(-c2cc(O)c(O)c(O)c2)oc2cc(O)cc(O)c12 [Myricetin, Myricetin (MYR) monohydrate] | −3.19 | −3.19 |  |
